Entries after “also recorded” stand apart in the source; their conditions may differ.
What was measured:
naïve mice [1] = assay: Von Frey testing of mechanical thresholds in naïve mice (WT and knockout); type: in vivo, mouse; conditions: for mechanical sensory thresholds (von Frey): i.t. injection
Description: (§1) Reflexive-based sensory testing in mice: All behavioral testing in mice was performed in a specialized humidity- and light-controlled mouse behavior facility maintained at 21-24° C., with testing conducted between the hours of 8:00-16:00. Mice were habituated to the testing environment for at least 2 days prior to baseline testing. All tests were performed by an experimenter who was blinded to experimental conditions, including genotypes and drug treatment. For multi-day experiments using STING agonists, mice were tested in the same room at approximately the same time each day. To measure mechanical sensitivity, mice were confined to individual chambers with non-transparent borders on an elevated mesh rack, preventing mice from visualizing or interacting with one another during the testing period. Mouse hindpaws were stimulated with a series of von Frey filaments with logarithmically increasing stiffness (0.02-2.56 g, Stoelting), which was applied perpendicularly to the central plantar surface. We determined the 50% paw withdrawal threshold using the up-down method. […] To test cold sensitivity, mice were again placed on an elevated metal mesh floor in isolated chambers, and a ˜20 μl acetone drop was applied to the central plantar surface of the mouse hindpaw using a pipette.
For the experiments utilizing i.t. 2′3′-cGAMP and 3′3′-cGAMP complexed with Lipofectamine 2000 (ThermoFisher, 11668), 10 μg 2′3′-cGAMP or 3′3′-cGAMP was incubated at room temperature for 30 minutes in sterile PBS with 3 μl Lipofectamine 2000. In this case, the vehicle control was 3 μl Lipofectamine 2000 in PBS, as in a previous study which used this approach. […] For experiments utilizing rabbit anti-IFN-α or -β neutralizing antibodies, a polyclonal rabbit IgG antibody served as the control. Antibodies were utilized in vivo at 300 ng/mouse or in vitro at 300 ng/ml. Paclitaxel was administered via repeated i.p. injections every other day for 4 days at a dose of 2 mg/kg. For the whole mount DRG recordings, young mice (4-6 weeks) were administered a single 6 mg/kg dose one week prior to the experiment. All intrathecal injections were performed under brief anesthesia with 2-2.5% isoflurane. Drugs administered by intrathecal injection were preceded by shaving a small area on the back corresponding to the injection site, followed by spinal puncture using a 30-gauge needle between the L5-L6 levels to deliver a maximum of 5-10 μl into the cerebrospinal fluid. Successful intrathecal injection was always confirmed by a brisk tail-flick upon delivery. For the experiments involving intraplantar (i.pl.) injection, IFN-α was dissolved in sterile saline and administered at the concentrations indicated in the figures in a total volume of 20 μl, administered under 2-2.5% isoflurane anesthesia to minimize animal stress. For these experiments, vehicle (saline) or IFN-α were slowly and carefully expressed into the left dorsal hindpaw of anesthetized mice and allowed to perfuse the tissue for ˜20 seconds prior to removal of the needle. […] Mechanical sensory testing was done anteriorly and care was taken to avoid Von Frey filament stimulation of the injection site.

[2] = system: mice with intrafemoral Lewis lung carcinoma (LLC); assay: LLC bone cancer pain model, systemic (i.p.) treatment, behavior tests and body weight; type: in vivo, mouse
Description: Bone cancer pain model. The murine cell lines LLC1, LL/2-Luc2 or E0771 were lightly digested using 0.05% trypsin, followed by centrifugation to remove poorly digested cell clusters. Cells were then resuspended in PBS at a concentration of 1×10^8 cells/ml. The inoculation was performed as previously described (Wang, K. et al. “PD-1 blockade inhibits osteoclast formation and murine bone cancer pain.” The Journal of clinical investigation, (2020); Wang, Z. et al. “Anti-PD-1 treatment impairs opioid antinociception in rodents and nonhuman primates.” Sci Transl Med 12 (2020)). Briefly, mice were anesthetized with 4% isoflurane and the left leg was shaved and the skin disinfected with 10% povidone-iodine and 75% ethanol. A superficial incision (0.5-1 cm) was made near the knee joint, exposing the patellar ligament. […] The syringe contents were slowly injected into the femoral cavity over a 2-minute interval. To prevent further leakage of tumor cells outside of the bone cavity, the outer injection site was sealed with silicone adhesive (Kwik-Sil, World Precision Instruments, US). Animals with surgery related movement dysfunction or with outside bone tumor injection were excluded from the study. Drug treatment. […] All other reagents were dissolved in sterile saline or PBS. For experiments utilizing rabbit anti-IFN-α or -β neutralizing antibodies, a polyclonal rabbit IgG antibody served as the control. […] Behavior tests. All the behavioral tests were conducted in a blinded manner and performed during between the hours of 9:00-16:00. Animals were habituated in a light and humidity controlled testing environment for at least 2 days prior to baseline testing. For Von Frey testing, mice were confined to individual 5×5 cm boxes placed on an elevated wire grid. A blinded experimenter stimulated their hindpaws using a series of von Frey filaments with logarithmically increasing stiffness (0.02-2.56 g, Stoelting). Each filament was applied perpendicularly to the central plantar surface. The 50% paw withdrawal threshold was determined using Dixon's up-down method.

[3] = Solubility noted at drug preparation; type: physicochemical; conditions: diluted in PBS containing 5% DMSO and 0.0625% Tween-20
Description: For the experiments utilizing i.t. 2′3′-cGAMP and 3′3′-cGAMP complexed with Lipofectamine 2000 (ThermoFisher, 11668), 10 μg 2′3′-cGAMP or 3′3′-cGAMP was incubated at room temperature for 30 minutes in sterile PBS with 3 μl Lipofectamine 2000. In this case, the vehicle control was 3 μl Lipofectamine 2000 in PBS, as in a previous study which used this approach. […] For experiments utilizing rabbit anti-IFN-α or -β neutralizing antibodies, a polyclonal rabbit IgG antibody served as the control. Antibodies were utilized in vivo at 300 ng/mouse or in vitro at 300 ng/ml. Paclitaxel was administered via repeated i.p. injections every other day for 4 days at a dose of 2 mg/kg. For the whole mount DRG recordings, young mice (4-6 weeks) were administered a single 6 mg/kg dose one week prior to the experiment. All intrathecal injections were performed under brief anesthesia with 2-2.5% isoflurane. Drugs administered by intrathecal injection were preceded by shaving a small area on the back corresponding to the injection site, followed by spinal puncture using a 30-gauge needle between the L5-L6 levels to deliver a maximum of 5-10 μl into the cerebrospinal fluid. Successful intrathecal injection was always confirmed by a brisk tail-flick upon delivery. […]

naïve mice [4] = assay: Hot plate test after resiniferatoxin ablation of TRPV1+ nociceptors; type: in vivo, mouse
tumor-bearing femora = assay: Bone fractures of tumor-bearing femora on d17 after LLC inoculation; type: in vivo, mouse; conditions: vehicle 87.5%
Description: Development and progression of cancer-induced osteolytic bone destruction frequently leads to bone fracture, which is an important component of SREs in patients with bone metastasis and is associated with decreased overall survival. On d17 after LLC inoculation, mice were euthanized and the tumor bearing femora were collected and the distal tumor-bearing femur where bone destruction occurs was analyzed.

mice with CIPN or BCP = assay: Conditioned place preference (CPP) assay in chronic pain (CIPN and BCP) models; type: in vivo, mouse; conditions: mice with neuropathic pain (CIPN), i.t. 35 nmol
Description: (§2) All mice underwent 3 d of preconditioning habituation in a temperature- and humidity-controlled room under low-light conditions between 08:00-16:00 in a two compartment CPP chamber (Med Associates Inc.). The two compartments differed by both visual and tactile cues. On the 4th day, animal behavior was video-recorded using a webcam connected to a laptop computer, and animal movement was automatically tracked for 15 minutes using the ANY-Maze software (Stoelting). […] On the conditioning day(s) (day 5 for single trial; day 5-7 for repeated trials), two pairing sessions were performed, with vehicle pairing in the AM session and drug treatment (e.g., vehicle or drug) in the PM session, separated by 4 h. In the AM session, mice always received vehicle (10 μl saline, delivered via i.t. injection under isoflurane anesthesia) and were immediately placed in their preferred CPP chamber for 2 h. […] 24 h after the completion of the pairing experiments, mice were placed in the CPP test box with access to both chambers and behavior was recorded for 15 minutes and analyzed using the ANY-Maze software for chamber preference. CPP score was calculated as the inverse of the time spent in the preferred chamber according to: [post-preference (sec)—pre-preference (sec)]. Vehicle served as a negative control for these experiments, while morphine (three trials/naïve mice) or clonidine (single trial/ongoing pain) served as positive controls.

[5] = system: rhesus macaques (Macaca mulatta); conditions: comparison value; cited from earlier work
naïve mice [6] = assay: Conditioned place preference (CPP) assay in naïve mice; conditions: i.t., morphine 2 nmol, DMXAA or ADU-S100 35 nmol
Description: as §2

naïve mice [7] = assay: Naloxone reversal of antinociception; type: in vivo, mouse; conditions: naloxone 10 mg/kg i.p.; morphine 2 nmol i.t., DMXAA or ADU-S100 35 nmol i.t.
Description: Following naloxone delivery, mice were tested within 15 minutes. For the experiments testing whether mice developed tolerance to the effects of STING agonists, vehicle or DMXAA (35 nmol) were administered via i.t. injection. Naïve mice received five single injections at D0, D3, D6, D9, and D12, with testing each day 4 h after injection. SNI mice received injections on two consecutive days beginning on D7 (D7 and D8) and every 48 h afterwards following the conclusion of sensory testing (D10, D12, D14, D16, and D18). Spinal cords (L4-L5) were collected for analysis of glial cell activation at D21 following SNI.

[8] = system: Ifnar1+/+ and Ifnar1−/− mice; type: in vivo, mouse; conditions: i.t. IFN-α
Description: as §1, with “pipette. […]” for “pipette.”

Compound: Nc1nc2c(ncn2[C@@H]2O[C@@H]3COP(=O)(O)O[C@H]4[C@@H](O)[C@H](n5cnc6c(N)ncnc65)O[C@@H]4COP(=O)(O)O[C@@H]2[C@@H]3O)c(=O)[nH]1 [2′3′-cGAMP, 2′3′ cyclic guanosine monophosphate—adenosine monophosphate]
- mechanical sensory thresholds (von Frey) (naïve mice [1]; naïve mice): induced dose-dependent antinociception; also recorded: elevated mechanical thresholds

Compound: Nc1nc2c(ncn2[C@@H]2O[C@@H]3COP(=O)(O)O[C@H]4[C@@H](O)[C@H](n5cnc6c(N)ncnc65)O[C@@H]4COP(=O)(O)O[C@H]3[C@H]2O)c(=O)[nH]1 [3′3′-cGAMP]
- acute effect on bone cancer pain ([2]; d11, 4 h after single i.p. injection): could attenuate cold allodynia or/and mechanical allodynia
- mechanical sensory thresholds (von Frey) (naïve mice [1]; naïve mice): induced dose-dependent antinociception; also recorded: elevated mechanical thresholds

Compound: O=C(Nc1ccc(I)cc1)c1ccc([N+](=O)[O-])o1 [C-176]
- solubility [3]: poor solubility
- mechanical sensitivity after i.t. inhibitor or neutralizing antibody (naïve mice [1]; naïve mice, i.t.): transient dose-dependent hypersensitivity

Compound: CCc1ccc(NC(=O)Nc2c[nH]c3ccccc23)cc1 [H-151]
- solubility [3]: poor solubility
- mechanical sensitivity after i.t. inhibitor or neutralizing antibody (naïve mice [1]; naïve mice, i.t.): transient dose-dependent hypersensitivity

Compound: Cn1cc(Nc2nccc(N3C[C@H]4CC[C@@H](C3)N4C(=O)[C@@H]3CC3(F)F)n2)cn1 [PF-06700841]
- mechanical sensitivity after i.t. inhibitor or neutralizing antibody (naïve mice [1]; naïve mice, i.t.): induced transient, dose-dependent mechanical allodynia
- effect of pretreatment on IFN-β-induced antinociception (naïve mice [1]; naïve mice, i.t., 1 μg): abolished IFN-β-induced antinociception

Compound: C=C(C)[C@]12C[C@@H](C)[C@@]34O[C@](Cc5ccccc5)(O[C@@H]1[C@@H]3C=C(COC(=O)Cc1ccc(O)c(OC)c1)C[C@]1(O)C(=O)C(C)=C[C@@H]41)O2 [RTX]
- heat sensitivity in the hot plate test (naïve mice [4]): heat insensitivity

Compound: O=P(O)(O)C(O)(Cn1ccnc1)P(=O)(O)O [ZA, Zoledronic acid]
- body weight ([2]; LLC model, twice i.p.): no effect on overall body weight
- mice with distal bone fractures (tumor-bearing femora): 25%

Compound: Clc1cccc(Cl)c1N=C1NCCN1 [clonidine]
- conditioned place preference, single pairing (mice with CIPN or BCP): robust CPP

Compound: CN1CC[C@]23c4c5ccc(O)c4O[C@H]2[C@@H](O)C=C[C@H]3[C@H]1C5 [morphine]
- intrathecal dose producing analgesia in NHPs [5]: 100 nmol
- conditioned place preference, repeated pairing (naïve mice [6]): induces CPP
- effect of naloxone on the antinociception of the substance (naïve mice [7]): reversed

Compound: IFN-α
- mechanical hypersensitivity induced by intraplantar IFN-α [8]: could block the mechanical hypersensitivity induced by intraplantar IFN-α
- antinociception in WT vs Ifnar1-gKO/cKO mice (naïve mice [1]; i.t.): induced transient antinociception in WT mice which was abolished in Ifnar1-gKO/cKO mice
- mechanical hypersensitivity of STINGgt/gt mice (naïve mice [1]; i.t.): could transiently rescue mechanical hypersensitivity
- paw withdrawal thresholds after i.t. recombinant interferon (naïve mice [1]; naïve mice, i.t.): increased paw withdrawal thresholds
- paw withdrawal thresholds after i.t. recombinant interferon (naïve mice [1]; naïve mice, i.t., listed as IFN-a): induced transient, dose-dependent antinociception

Compound: IFN-β: recombinant mouse IFN-β produced in mammalian cells (PBL Assay Science, 12410-1)
- antinociception in WT vs Ifnar1-gKO/cKO mice (naïve mice [1]; i.t.): induced transient antinociception in WT mice which was abolished in Ifnar1-gKO/cKO mice
- mechanical hypersensitivity of STINGgt/gt mice (naïve mice [1]; i.t.): could transiently rescue mechanical hypersensitivity
- paw withdrawal thresholds after i.t. recombinant interferon (naïve mice [1]; naïve mice, i.t.): induced transient, dose-dependent antinociception; also recorded: increased paw withdrawal thresholds

Compound: poly(I:C)
- effect on mechanical thresholds in knockout mice (naïve mice [1]; i.t. 1 μg, knockout genotypes): abolished in Ifnar1fx/fx; Nav1.8-Cre and RIG-I−/− mice
- mechanical thresholds after i.t. dsDNA or dsRNA analog (naïve mice [1]; i.t. 1 μg, responsive genotypes): elevated mechanical thresholds similarly in Ifnar1fx/fx (WT), STINGgt/gt, and cGAS−/− mice
